For this assay, the system named is E. coli wild-type GFP strain growth, fluorescence, 24 h. As to the kind of experiment: growth inhibition of wild-type GFP E. coli, dose response, H69 mutant RFP, cherry-pick (AID 977621).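 Further: wild-type GFP and H69 mutant RFP strains grown together 50/50 in each well.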
[1] abbreviates: E. coli mixed culture, 24 h, measured here: total growth OD600, test 2.

Records with an inconclusive call do not appear. The source made the active and inactive calls.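 How the source made its calls: active means Wild-type ribosome reporter drop at least double the humanized mutant ribosome reporter drop, growth loss under a set limit; inconclusive means no clear call, values can overlap the other calls; inactive means the rest.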

As to `O=C(CN1CCN(c2ccc(O)cc2)CC1)Nc1cc(S(=O)(=O)N2CCCC2)ccc1Cl`, the AC50 was > 100 µM (inactive). As for `COc1cc(C(=O)Nc2nnc(S(=O)(=O)N3CCCCCC3)s2)cc(OC)c1OC`, the AC50 is > 100 µM (inactive). Under setting [1], this compound registered an AC50 of 36.3 µM. `NC(=O)c1cc(NC(=O)c2cc(Br)c(Br)s2)cc(C(N)=O)c1`: the AC50 was > 100 µM (inactive). Consider `COc1ccc(CN(C)C[C@H]2Oc3ccc(NS(=O)(=O)c4ccc(Cl)cc4)cc3CC(=O)N([C@@H](C)CO)C[C@H]2C)cc1`, for which the half-maximal activity concentration (AC50) under setting [1] was greater than 100 µM. With `CCSc1nc2ccccc2c(=O)n1Cc1ccc(F)cc1`, the AC50 was > 100 µM (inactive). Moreover, the AC50 under setting [1] is 49.4 µM. The compound `CC(C)(C)NC(=O)C(c1ccncc1)N(Cc1ccc(F)cc1)C(=O)c1ccc(-c2ccccc2)[nH]1` (stereo unspecified) returned a half-maximal activity concentration (AC50) under setting [1] greater than 100 µM. Take `CSc1nc(SCCN(C)C)c2c3c(sc2n1)COC(C)(C)C3`: the AC50 was > 100 µM (inactive). Under setting [1], the AC50 was greater than 100 µM. Take `C=CCn1c(C)cc(C(=O)CSc2nnc(C3CC3)n2C2CC2)c1C`: the AC50 under setting [1] was greater than 100 µM. Consider `COc1ccc(CN(CC(O)COCc2ccccc2)S(=O)(=O)c2ccccc2Br)cc1OC` (stereo unspecified), for which the AC50 was > 100 µM (inactive). Under setting [1], the AC50 came out at 28.5 µM. Turning to `O=C(COC(=O)CCSc1ccc(F)cc1)NCc1ccc(F)cc1`, the AC50 is > 100 µM (inactive).

For `COc1cc(NC(=O)CSCc2ccc(Cl)cc2Cl)c(C(=O)O)cc1OC`, the AC50 is > 100 µM (inactive). This compound registered a concentration at half-maximal activity (AC50) under setting [1] greater than 100 µM. Turning to `O=C(Nc1ccc2c(c1)OCO2)c1cc(-c2ccncc2)nc2ccccc12`, the AC50 is > 100 µM (inactive). As to `Fc1ccc(-c2nnc(-c3ccc4ccccc4c3)o2)cc1`, the AC50 is > 100 µM (inactive). Further, the half-maximal activity concentration (AC50) under setting [1] is greater than 100 µM. For `COc1ccc(NC(=O)c2sccc2-n2cccc2)cc1`, the AC50 was > 100 µM (inactive).

Regarding `Cc1c(C(=O)NCCSCc2cccc(C(F)(F)F)c2)cnn1-c1ccc(F)cc1`, the AC50 is > 100 µM (inactive). Also, the concentration at half-maximal activity (AC50) under setting [1] is 17.4 µM.

For the compound `O=C(c1cc2cc(F)ccc2[nH]1)N1CCN(Cc2ccc3c(c2)OCO3)CC1`, the AC50 is > 100 µM (inactive). Moreover, the half-maximal activity concentration (AC50) under setting [1] is 24.5 µM. The matching figures for `CCOc1ccc(OCC)c(NC(=O)CSc2nc3cccnc3n2C)c1`: > 100 µM (inactive) and 36.6 µM.

Regarding `CCCC#C/C(CCC)=C1\c2ccccc2C(=O)N1c1ccccc1`, the concentration at half-maximal activity (AC50) under setting [1] is greater than 100 µM. For `CC(C)Nc1nnc(SCC(=O)Nc2sccc2C#N)s1`, the AC50 is > 100 µM (inactive). Regarding `Cn1cnc(CCNC(=O)C[C@H]2CC[C@@H]3[C@H](COC[C@H](O)CN3C(=O)Nc3ccc(Cl)cc3)O2)c1`, the AC50 was > 100 µM (inactive). With `Cc1ccc(NC(=O)c2ccc([N+](=O)[O-])o2)c(C)c1`, the AC50 is > 100 µM (inactive). `CCc1cccc(NC(=O)CCC(=O)N2CCSc3ccccc32)c1`: the AC50 is > 100 µM (inactive). In addition, the AC50 under setting [1] came out at 47.6 µM. For `CCOC(=O)c1cc(-c2ccc(OC)cc2)n[nH]1`, under setting [1], the AC50 is greater than 100 µM. On to `O=S(=O)(Nc1cccc(-c2ccc(N3CCCCCC3)nn2)c1)c1ccc(F)cc1`, for which the AC50 was > 100 µM (inactive).

For the compound `COc1ccc(N(CCC(=O)O)S(=O)(=O)c2ccc(C)cc2C)cc1`, the AC50 under setting [1] is greater than 100 µM. On the same count and under the same terms, the figure for `Cc1noc(C)c1NC(=O)Nc1ccc2c(c1)C(=O)N([C@H](C)CO)C[C@H](C)[C@H](CN(C)C(=O)Nc1ccc3c(c1)OCO3)OCCCC[C@@H](C)O2` is greater than 100 µM. On to `COC(=O)c1ccccc1OCCOCCOc1cccc2ccc(C)nc12`, for which the AC50 is > 100 µM (inactive). Consider `C[C@@H]1CN([C@H](C)CO)C(=O)c2cccc(NC(=O)Nc3ccc4c(c3)OCO4)c2O[C@@H]1CN(C)C(=O)Nc1ccc2c(c1)OCO2`, for which the half-maximal activity concentration (AC50) under setting [1] was greater than 100 µM. `C[C@@H]1CN([C@@H](C)CO)C(=O)c2cc(NC(=O)Nc3cccc4ccccc34)ccc2O[C@@H](C)CCCCO[C@@H]1CN(C)C` showed an AC50 under setting [1] greater than 100 µM. `O=C(C[C@H]1CC[C@@H]2[C@H](COC[C@@H](O)CN2C(=O)Nc2cc(Cl)cc(Cl)c2)O1)N1CCOCC1`: the AC50 is > 100 µM (inactive). `O=S(=O)(c1ccc(F)cc1)N1C[C@@H]2N[C@H](C1)C2c1ccc(/C=C/c2ccccc2)cc1` (stereo partly specified) yielded an AC50 under setting [1] of 41.3 µM. In the case of `CSCCC(=O)Nc1nc(-c2ccccn2)cs1`, the AC50 is > 100 µM (inactive). With `CCN(c1ccccc1)S(=O)(=O)c1ccc(OC)c(OC)c1`, the AC50 is > 100 µM (inactive). Further, the AC50 under setting [1] was greater than 100 µM. With `CCCCc1cc2c(cc1NC(=O)CN1CCCCC1)OCCO2`, the AC50 was > 100 µM (inactive). Further, the AC50 under setting [1] is greater than 100 µM. `COc1ccccc1C1CCN(Cc2cccc([N+](=O)[O-])c2)CC1`: the AC50 is > 100 µM (inactive). This compound also came in with a half-maximal activity concentration (AC50) under setting [1] greater than 100 µM. On to `O=C(Nc1cccc(Cl)c1)N1C[C@H]2[C@@H](c3ccccc31)[C@H](CO)N2CC1CCCCC1`, for which the AC50 was > 100 µM (inactive).

As to `Cc1ccc(S(=O)(=O)Nc2cccc(-c3ccc(N4CCCCCC4)nn3)c2)cc1`, the AC50 is > 100 µM (inactive). Moreover, the half-maximal activity concentration (AC50) under setting [1] stood at 28.9 µM. In turn, `CC1Cc2cc(S(=O)(=O)N3CCN(c4cccc(Cl)c4)CC3)ccc2N1C(=O)C1CC1` (stereo unspecified) showed an AC50 under setting [1] greater than 100 µM.

On to `CCOc1ccccc1C(=O)OCC(=O)NCCc1ccc(OC)cc1`, for which the AC50 was > 100 µM (inactive). On to `O=S(=O)(Cc1ccccc1)N1CCCCN2[C@@H](CO)[C@H](c3ccc(C#Cc4ccccc4)cc3)[C@@H]2C1`, for which the AC50 was > 100 µM (inactive). Still for that read-out and setting: next, `Cc1ccc(C2(c3noc(CN(C)Cc4cccnc4)n3)CCCC2)cc1`: > 100 µM (inactive). Turning to `O=C(c1ccc(Cl)cc1)N1CCN(c2cccc3[nH]ccc23)CC1`, the AC50 was > 100 µM (inactive). As for `Cc1cc2nc(-c3ccc4c(c3)CCC4)ccn2n1`, the AC50 is > 100 µM (inactive). The concentration at half-maximal activity (AC50) under setting [1] was greater than 100 µM.

Turning to `COc1ccc(C(=O)COC(=O)c2ccccc2O)c(OC)c1`, the AC50 was > 100 µM (inactive).

In the case of `O=C(COC(=O)c1cccc(S(=O)(=O)N2CCCCC2)c1)NCc1cccc(Cl)c1`, the AC50 is > 100 µM (inactive).

`CCc1cc(C(=O)N2CCCC(C(=O)c3cccc4ccccc34)C2)n(C)n1` (stereo unspecified) showed an AC50 under setting [1] greater than 100 µM.

Turning to `COc1cc(C(N)=O)cc(Br)c1OCc1ccccc1`, the AC50 is > 100 µM (inactive). This compound also yielded an AC50 under setting [1] of 35.4 µM.

`Cc1ccccc1-n1ncc2c(SCC(=O)N3c4ccccc4CC3C)ncnc21` (stereo unspecified): the AC50 was > 100 µM (inactive). Regarding `COc1cccc(NS(=O)(=O)c2ccc(-c3coc(C)n3)cc2)c1`, the AC50 is > 100 µM (inactive). Moreover, the AC50 under setting [1] was 3.29 µM.

As for `COc1ccccc1C1CCN(C(=O)c2ccco2)CC1`, under setting [1], the concentration at half-maximal activity (AC50) is greater than 100 µM.

With `Cc1sc2ncnc(N3CCCC(C)C3)c2c1C` (stereo unspecified), the AC50 is > 100 µM (inactive). For the compound `OC[C@H]1[C@H](c2ccc(-c3ccc(F)cc3)cc2)[C@@H]2CN(Cc3ccncc3)CCCCN12`, the AC50 was > 100 µM (inactive). With `CCCCCCCNC(=O)c1ccc(N2CCC3(CC2)OCCO3)c([N+](=O)[O-])c1`, the AC50 was > 100 µM (inactive). This compound also had an AC50 under setting [1] of 35.4 µM. For the compound `CC1=Nc2cc(C(=O)NCC3CCCO3)ccc2Sc2ccc(Br)cc21` (stereo unspecified), the AC50 is > 100 µM (inactive). Still for that read-out and setting: next, `CCCN(CC1CC1)C(=O)CSc1ncnc2sccc12`: > 100 µM (inactive). In turn, `COc1ccc(CCCc2nc3ccccc3[nH]2)cc1` gave an AC50 under setting [1] greater than 100 µM. `COc1ccc(CC(=O)NC(C)c2ccc3ccccc3c2)cc1` (stereo unspecified): the AC50 is > 100 µM (inactive). For `COc1ccc(NC(=O)Nc2cccc3c2O[C@H](CN(C)S(=O)(=O)c2ccc(Cl)cc2)[C@H](C)CN([C@@H](C)CO)C3=O)cc1`, the AC50 was > 100 µM (inactive). This compound also displayed an AC50 under setting [1] of 6.44 µM. In the case of `CCN(CC)C(=O)c1ccc(COc2ccccc2Cl)o1`, the concentration at half-maximal activity (AC50) under setting [1] was greater than 100 µM. As for `CN(Cc1ccc(Cl)s1)C(=O)CNC(=O)CNC(=O)c1ccc(Cl)cc1Cl`, the AC50 is > 100 µM (inactive). `CN(CCOc1ccccc1)C(=O)c1ccc(OC2CCN(C(=O)C3CC3)CC2)cc1`: the AC50 is > 100 µM (inactive). Turning to `COC(=O)CNC(=O)COC(=O)c1ccc(Cl)nc1`, the concentration at half-maximal activity (AC50) under setting [1] is greater than 100 µM. Consider `COC(=O)c1c(C)oc(C)c1S(=O)(=O)Nc1ccc(C(C)C)cc1`, for which the AC50 is > 100 µM (inactive). This compound showed an AC50 under setting [1] of 51.5 µM.

`CC(C)Sc1sc(C(=O)O)c(-c2ccc(Cl)cc2)c1C#N` came in with an AC50 under setting [1] of 32.7 µM. Turning to `CCOc1ccc(NC(=O)CN2C(=O)COc3ccc(S(=O)(=O)N4CCCC4)cc32)cc1`, the AC50 was > 100 µM (inactive). For `CCOC(=O)c1[nH]c2ccccc2c1NC(=O)c1ccc(Br)o1`, the AC50 was > 100 µM (inactive).

`COc1ccc(NC(=O)c2oc3ccccc3c2NC(=O)C2CCCO2)cc1OC` (stereo unspecified): the AC50 was > 100 µM (inactive). `COc1ccc(-c2csc(C)n2)cc1Br` gave an AC50 under setting [1] greater than 100 µM.

As for `CCN(CC)S(=O)(=O)c1cc(NS(=O)(=O)c2cccc(Cl)c2Cl)ccc1C`, the AC50 was > 100 µM (inactive). The compound further had an AC50 under setting [1] of 33.4 µM. Compound `N#Cc1nc(-c2ccco2)oc1NCc1ccccc1Cl` displayed a half-maximal activity concentration (AC50) under setting [1] of 49.6 µM. Take `CCN(CC)CCN(C(=O)C1CCCCC1)c1nc2cc3c(cc2s1)OCO3`: the AC50 was > 100 µM (inactive). Take `O=C(Cc1cccnc1)N1CC(=O)N2[C@H](C1)[C@@H](c1ccc(C3=CCCCC3)cc1)[C@@H]2CO`: the AC50 is > 100 µM (inactive). Besides, the half-maximal activity concentration (AC50) under setting [1] is greater than 100 µM.

`CCC(=O)Nc1sc(Cc2ccc3c(c2)OCO3)c(C)c1C(N)=O`: the AC50 is > 100 µM (inactive). Under setting [1], this compound displayed a concentration at half-maximal activity (AC50) of 51.4 µM.

For `Cc1ccc(S(=O)(=O)NC(C)C(=O)NCc2ccc(Cl)cc2)cc1` (stereo unspecified), the AC50 is > 100 µM (inactive). The same compound came in with a concentration at half-maximal activity (AC50) under setting [1] greater than 100 µM.

Take `Nc1c(C(=O)NCCN2CCOCC2)c2nc3ccccc3nc2n1Cc1ccccc1`: the AC50 is > 100 µM (inactive). For the same compound, where the note is “measured here: total growth OD600, test 2”, the AC50 is greater than 100 µM. Turning to `O=C(Nc1ccc(Cl)cn1)c1ccc([N+](=O)[O-])o1`, the AC50 under setting [1] is greater than 100 µM.

A word on the AC50: it is the concentration at which the activity in the assay is half-maximal.

The values above are taken from PubChem BioAssay AID977621 (Broad Institute, 2014).
